Data published in patent publication US10858365B2, “Triazolo-pyrimidine compounds and uses thereof” (Dizal (Jiangsu) Pharmaceutical Co., Ltd., priority 2018, dated 2020).

Legend:
hA2a [1] = biological target: T1, hA2a (Homo sapiens (Human), UniProt P29274); assay: Radioligand binding to hA2a membrane ([3H]-CGS21680); settings: [3H]-CGS21680, 90 min at 25° C., read-out: Binding Affinity (IC50 nM) hA2a
Protocol: (§1) Binding affinity and specificities of the compounds against different subtype of human adenosine receptors (hA1, hA2A, hA2B and hA3) were characterized with cell membrane chromatography binding analysis.
(§2) The compounds at different concentrations were incubate with hA2a membrane (from PerkinElmer) and [^3H]-CGS21680 for 90 min at 25° C., meanwhile 100 μL 0.5% PEI solution was added into […]-96 GF/B filter plate for 60 min at 4° C., then […]-96 GF/B filter plate was washed twice with 50 ml wash buffer, the membrane mix was transferred into […]-96 GF/B filter plate, and the filter plate was washed 4 times before incubated at 55° C. for 10 min. At last, […] ULTIMA GOLD was added into each well, and CPM was read by TopCount.
(§3) The empty boxes in the tables below indicate data not available.

hA1 [2] = biological target: T2, hA1 (Homo sapiens (Human), UniProt P30542); assay: Radioligand binding to hA1 membrane ([3H]-DPCPX); settings: 50 min at 25° C., read-out: Binding Affinity (IC50 nM) hA1
Protocol: as §1
as §2, with “hA1” for “hA2a”, “[^3H]-8-Cyclopentyl-1,3-dipropylxanthine (DPCPX)” for “[^3H]-CGS21680”, “50” for “90”
as §3

hA2b [3] = biological target: T3, hA2b (Homo sapiens (Human), UniProt P29275); assay: Radioligand binding to hA2b membrane ([3H]-DPCPX); settings: 60 min at 27° C., read-out: Binding Affinity (IC50 nM) hA2b
Protocol: as §1
(§4) The compounds at different concentrations were incubate with hA2b membrane (from PerkinElmer) and [^3H]-DPCPX for 60 min at 27° C., and the binding reactions were stopped by rapid filtration through 0.5% BSA coated […]-96 GF/C plates using cell harvester. The filter plates were then washed three times with ice cold wash buffer, and dried at 37° C. for 120 min. At last, 50 µL of scintillation cocktail was added into each well, and CPM was read by TopCount.
as §3

hA3 [4] = biological target: T4, hA3 (Homo sapiens (Human), UniProt P0DMS8); assay: Radioligand binding to hA3 membrane (AB-MECA radioligand); settings: 60 min at 27° C., read-out: Binding Affinity (IC50 nM) hA3
Protocol: as §1
as §4, with “hA3” for “hA2b”, “[…]” for “[^3H]-DPCPX”, “C.,” for “C., and”, “0.50%” for “0.5%”
as §3

hA2a [5] = biological target: T1, hA2a; assay: cAMP inhibition assay in hA2a/CHO cells; assay type: cell-based; settings: adenosine stimulation, read-out: cAMP & FLIPR IC50 (nM) hA2a
How it was run: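 CHO cells expressing human A2a, human A2b or mouse A2a, 5×10^3 cells/well, pre-incubated with compound 30 min at 37 °C, then stimulated with […] adenosine 30 min at 37 °C. cAMP read after 60 min room-temperature incubation with detection reagent.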

hA2b [6] = biological target: T3, hA2b; assay: cAMP inhibition assay in hA2b/CHO cells; assay type: cell-based; settings: adenosine stimulation, read-out: cAMP & FLIPR IC50 (nM) hA2b
Protocol: (§5) hA2a/CHO, hA2b/CHO and mA2a/CHO (Genscript) were plated at 5×10^3 cells/well into 384-well polystyrene plates at the day of experiment. Compounds were pre-incubated with cells for 30 min at 37° C., 5% CO2. Then […] adenosine was added to the cells and incubated for 30 min at 37° C., 5% CO2. Detection reagent (CISBIO) was added and the plates were incubated for 60 min at room temperature. The signal was captured by Envision.

mA2a = mA2a (Mus musculus (Mouse), UniProt Q60613); assay: cAMP inhibition assay in mA2a/CHO cells; assay type: cell-based; settings: adenosine stimulation, read-out: cAMP & FLIPR IC50 (nM) mA2a
Protocol: as §5

hA1 [7] = biological target: T2, hA1; assay: FLIPR inhibition assay in hADORA1/CHO (hA1 expressing) cells; assay type: cell-based; settings: hADORA1/CHO cells, FLIPR calcium, adenosine stimulation; read-out: cAMP & FLIPR IC50 (nM) hA1
How it was run: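 CHO cells expressing human A1 were plated at 1×10^4 cells/well the day before, then loaded with FLIPR Calcium 5 dye for 60 min at 37 °C, 5% CO2. Compounds were added at several concentrations for 400 s before stimulation with […] adenosine. The calcium signal was recorded by FLIPR.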

hA3 [8] = biological target: T4, hA3; assay: cAMP & FLIPR inhibition, hA3 over-expressing cell line; assay type: cell-based
Source text: FLIPR™ and cAMP inhibition activities of exemplary compounds in different adenosine receptor over-expressing cell lines are shown in Table 4 below.

T1 sequence (P29274 whole entry): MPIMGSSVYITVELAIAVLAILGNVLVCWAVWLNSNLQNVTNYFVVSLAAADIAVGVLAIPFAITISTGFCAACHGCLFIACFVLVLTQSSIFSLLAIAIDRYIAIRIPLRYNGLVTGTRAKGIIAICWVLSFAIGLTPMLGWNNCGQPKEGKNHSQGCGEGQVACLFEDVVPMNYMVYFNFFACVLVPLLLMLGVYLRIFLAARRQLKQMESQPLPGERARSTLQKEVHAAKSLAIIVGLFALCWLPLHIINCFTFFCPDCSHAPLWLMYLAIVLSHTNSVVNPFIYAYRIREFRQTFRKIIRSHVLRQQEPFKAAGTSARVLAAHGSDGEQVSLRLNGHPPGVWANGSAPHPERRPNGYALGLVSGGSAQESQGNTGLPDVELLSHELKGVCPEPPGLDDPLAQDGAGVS
T3 sequence (P29275 whole entry): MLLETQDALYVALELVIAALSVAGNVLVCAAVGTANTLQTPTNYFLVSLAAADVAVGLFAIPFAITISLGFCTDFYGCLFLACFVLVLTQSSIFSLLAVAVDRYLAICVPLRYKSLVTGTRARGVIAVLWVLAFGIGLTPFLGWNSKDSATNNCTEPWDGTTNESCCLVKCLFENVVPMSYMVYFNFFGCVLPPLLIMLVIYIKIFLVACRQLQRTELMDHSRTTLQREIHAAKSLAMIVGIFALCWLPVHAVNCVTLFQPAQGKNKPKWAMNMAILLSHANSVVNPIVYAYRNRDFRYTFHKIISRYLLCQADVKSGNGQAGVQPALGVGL
T2 sequence (P30542 whole entry): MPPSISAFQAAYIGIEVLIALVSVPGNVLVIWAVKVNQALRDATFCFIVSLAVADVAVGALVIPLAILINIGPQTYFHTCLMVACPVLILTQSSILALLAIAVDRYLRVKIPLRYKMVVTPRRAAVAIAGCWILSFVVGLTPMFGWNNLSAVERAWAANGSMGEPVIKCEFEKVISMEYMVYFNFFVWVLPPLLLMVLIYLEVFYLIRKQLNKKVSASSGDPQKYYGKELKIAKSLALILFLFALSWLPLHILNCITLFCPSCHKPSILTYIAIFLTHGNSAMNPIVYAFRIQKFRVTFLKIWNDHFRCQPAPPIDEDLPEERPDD
T4 sequence (P0DMS8 whole entry): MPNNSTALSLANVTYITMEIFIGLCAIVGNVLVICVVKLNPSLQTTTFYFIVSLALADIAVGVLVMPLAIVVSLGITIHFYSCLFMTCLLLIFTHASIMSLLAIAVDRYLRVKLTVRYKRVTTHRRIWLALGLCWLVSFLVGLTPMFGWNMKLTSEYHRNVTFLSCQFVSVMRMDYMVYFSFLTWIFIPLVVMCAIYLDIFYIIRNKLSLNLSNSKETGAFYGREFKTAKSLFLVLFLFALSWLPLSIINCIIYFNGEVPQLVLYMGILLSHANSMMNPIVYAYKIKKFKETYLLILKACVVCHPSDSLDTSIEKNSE
Sequence of mA2a (Q60613 whole entry): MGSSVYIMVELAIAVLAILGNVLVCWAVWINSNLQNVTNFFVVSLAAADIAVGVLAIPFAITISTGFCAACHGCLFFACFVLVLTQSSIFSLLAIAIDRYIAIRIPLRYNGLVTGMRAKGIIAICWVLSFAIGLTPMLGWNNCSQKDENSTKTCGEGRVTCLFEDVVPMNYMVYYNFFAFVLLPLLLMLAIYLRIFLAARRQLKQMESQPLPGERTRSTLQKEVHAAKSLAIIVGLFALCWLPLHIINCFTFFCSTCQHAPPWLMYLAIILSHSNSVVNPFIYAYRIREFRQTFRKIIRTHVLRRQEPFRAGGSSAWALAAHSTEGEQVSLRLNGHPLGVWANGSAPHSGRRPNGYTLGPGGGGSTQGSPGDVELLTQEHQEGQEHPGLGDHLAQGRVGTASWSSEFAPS

In the case of `CN(C)c1cc(-c2c(-c3ccc(F)cc3)nc(N)n3nc(Cc4c(F)cccc4F)nc23)ccn1` [Example 10, 2-(2,6-difluorobenzyl)-8-(2-(dimethylamino)pyridin-4-yl)-7-(4-fluorophenyl)-[l,2,4]triazolo [l,5-c]pyrmidin-5-amine], the IC50 (hA2a [1]) is reported as 0.9 nM, the IC50 (hA1 [2]) is reported as 2.3 nM and the IC50 (hA2b [3]) is reported as 0.1 nM. For the same molecule, the IC50 (hA3 [4]) was 4770 nM, the IC50 (hA2a [5]) was 0.2 nM and the IC50 (hA2b [6]) was 4.4 nM. The IC50 (mA2a) was 0.4 nM, the IC50 (hA1 [7]) was 42 nM and the IC50 (hA3 [8]) was > 10000 nM.
In the case of `Cc1cc(-c2c(-c3ccc(F)cc3)nc(N)n3nc(Cc4ncccc4F)nc23)cc(Cl)n1` [Example 18, 8-(2-chloro-6-methylpyridin-4-yl)-7-(4-fluorophenyl)-2-((3-fluoropyridin-2-yl)methyl)-[l,2,4]triazolo[1,5-c]pyrimidin-5-amine], the IC50 (hA2a [5]) is reported as 1.2 nM, the IC50 (hA2b [6]) is reported as 511 nM and the IC50 (mA2a) is reported as 9.6 nM. The IC50 (hA1 [7]) was 49 nM and the IC50 (hA3 [8]) was > 10000 nM.
Work on `Cc1cc(-c2c(-c3ccc(F)cc3)nc(N)n3nc(Cc4cccc(Cl)c4)nc23)ccn1` [Example 8, 2-[(3-chlorophenyl)methyl]-7-(4-fluorophenyl)-8-(2-methylpyridin-4-yl)-[1,2,4]triazolo[1,5-c]pyrimidin-5-amine] yielded an IC50 (hA2a [5]) of 59 nM, an IC50 (hA2b [6]) of 2950 nM and an IC50 (mA2a) of 98 nM. For the same molecule, the IC50 (hA1 [7]) was 162 nM and the IC50 (hA3 [8]) was > 10000 nM.
For `Cn1cc(-c2c(-c3ccc(F)cc3)nc(N)n3nc(Cc4ncccc4F)nc23)ccc1=O` [Example 1, 5-(5-amino-7-(4-fluorophenyl)-2-((3-fluoropyridin-2-yl)methyl)-[1,2,4]triazolo[1,5-c]pyrimidin-8-yl)-1-methylpyridin-2(1H)-one], the IC50 (hA2a [1]) was 2.3 nM, the IC50 (hA1 [2]) was 1.1 nM and the IC50 (hA2b [3]) was 2.3 nM. The IC50 (hA3 [4]) was 2870 nM, the IC50 (hA2a [5]) was 4.7 nM and the IC50 (hA2b [6]) was 117 nM. The IC50 (mA2a) was 10 nM, the IC50 (hA1 [7]) was 8.5 nM and the IC50 (hA3 [8]) was > 10000 nM.
With `CCn1cc(-c2c(-c3ccc(F)cc3)nc(N)n3nc(Cc4ncccc4F)nc23)ccc1=O` [Example 34, 5-(5-amino-7-(4-fluorophenyl)-2-((3-fluoropyridin-2-yl)methyl)-[1,2,4]triazolo[1,5-c]pyrimidin-8-yl)-1-ethylpyridin-2(1H)-one] the IC50 (hA2a [1]) was 2.8 nM, the IC50 (hA1 [2]) was 0.8 nM and the IC50 (hA2b [3]) was 0.4 nM. The IC50 (hA3 [4]) was 10000 nM, the IC50 (hA2a [5]) was 2.1 nM and the IC50 (hA2b [6]) was 58 nM. For the same molecule, the IC50 (mA2a) was 3.4 nM and the IC50 (hA1 [7]) was 12 nM.
`CC(C)n1cc(-c2c(-c3ccc(F)cc3)nc(N)n3nc(Cc4ncccc4F)nc23)ccc1=O` [Example 55, 5-(5-amino-7-(4-fluorophenyl)-2-((3-fluoropyridin-2-yl)methyl)-[1,2,4]triazolo[1,5-c]pyrimidin-8-yl)-1-isopropylpyridin-2(1H)-one] gave an IC50 (hA2a [1]) of 4 nM, an IC50 (hA1 [2]) of 0.1 nM and an IC50 (hA2b [3]) of 2.8 nM. The IC50 (hA3 [4]) was 7290 nM, the IC50 (hA2a [5]) was 0.7 nM and the IC50 (hA2b [6]) was 101 nM. It also gave an IC50 (mA2a) of 0.8 nM and an IC50 (hA1 [7]) of 13 nM.
With `Cc1cc(-c2c(-c3ccc(F)cc3)nc(N)n3nc(C(C)c4c(F)cccc4F)nc23)ccn1` (stereo not shown) [Example 12, 2-[1-(2,6-difluorophenyl)ethyl]-7-(4-fluorophenyl)-8-(2-methylpyridin-4-yl)-[1,2,4]triazolo[1,5-c]pyrimidin-5-amine] the IC50 (hA2a [5]) was 46 nM, the IC50 (hA2b [6]) was 5000 nM and the IC50 (mA2a) was 316 nM. For the same molecule, the IC50 (hA1 [7]) was 214 nM and the IC50 (hA3 [8]) was > 10000 nM.
For `Cc1cc(-c2c(-c3ccc(F)cc3)nc(N)n3nc(Cc4ncccc4F)nc23)cc(C)n1` [Example 14], the IC50 (hA2a [5]) was 6.9 nM, the IC50 (hA2b [6]) was 2240 nM and the IC50 (mA2a) was 18 nM. For the same molecule, the IC50 (hA1 [7]) was 97 nM and the IC50 (hA3 [8]) was > 10000 nM.
`Cc1cc(-c2c(-c3ccc(F)cc3)nc(N)n3nc(Cc4c(F)cccc4F)nc23)c(C)cn1` [Example 13, 2-[(2,6-difluorophenyl)methyl]-8-(2,5-dimethylpyridin-4-yl)-7-(4-fluorophenyl)-[1,2,4]triazolo[1,5-c]pyrimidin-5-amine] showed an IC50 (hA2a [5]) of 11 nM, an IC50 (hA2b [6]) of 81 nM and an IC50 (mA2a) of 56 nM. The IC50 (hA1 [7]) was 153 nM and the IC50 (hA3 [8]) was > 10000 nM.
`Cc1cc(-c2c(-c3ccc(F)cc3)nc(N)n3nc(Cc4cccc(C#N)n4)nc23)ccn1` [Example 19, 6-((5-amino-7-(4-fluorophenyl)-8-(2-methylpyridin-4-yl)-[1,2,4]triazolo[1,5-f]pyrimidin-2-yl)methyl)picolinonitrile] showed an IC50 (hA2a [5]) of 102 nM, an IC50 (hA2b [6]) of 303 nM and an IC50 (mA2a) of 88 nM. For the same molecule, the IC50 (hA1 [7]) was 23 nM and the IC50 (hA3 [8]) was > 10000 nM.
`Nc1nc(-c2ccc(F)cc2)c(-c2ccnnc2)c2nc(Cc3c(F)cccc3F)nn12` [Example 6, 2-(2,6-difluorobenzyl)-7-(4-fluorophenyl)-8-(pyridazin-4-yl)-[1,2,4]triazolo[1,5-c]pyrimidin-5-amine] was tested, and the IC50 (hA2a [5]) was 63 nM, the IC50 (hA2b [6]) was 17 nM and the IC50 (mA2a) was 182 nM. The IC50 (hA1 [7]) was 21 nM and the IC50 (hA3 [8]) was > 10000 nM.
`Cn1cc(-c2c(-c3ncco3)nc(N)n3nc(Cc4ncccc4F)nc23)ccc1=O` [Example 21, 5-(5-amino-2-((3-fluoropyridin-2-yl)methyl)-7-(oxazol-2-yl)-[1,2,4]triazolo[1,5-c]pyrimidin-8-yl)-1-methylpyridin-2(1H)-one] gave an IC50 (hA2a [1]) of 20 nM, an IC50 (hA1 [2]) of 43 nM and an IC50 (hA2a [5]) of 36 nM. It also gave an IC50 (hA2b [6]) of 270 nM, an IC50 (mA2a) of 41 nM and an IC50 (hA1 [7]) of 113 nM. For the same molecule, the IC50 (hA3 [8]) was > 10000 nM.
In the case of `Cc1cc(-c2c(-c3ccc(F)cc3)nc(N)n3nc(Cc4cscn4)nc23)ccn1` [Example 7, 7-(4-fluorophenyl)-8-(2-methylpyridin-4-yl)-2-[(1,3-thiazol-4-yl)methyl]-[1,2,4]triazolo[1,5-c]pyrimidin-5-amine], the IC50 (hA2a [5]) is reported as 102 nM, the IC50 (hA2b [6]) is reported as 1600 nM and the IC50 (mA2a) is reported as 209 nM. The IC50 (hA1 [7]) was 23 nM and the IC50 (hA3 [8]) was > 10000 nM.
Molecule `Cn1cc(-c2c(-c3ccc(F)cc3)nc(N)n3nc(Cc4c(F)cccc4F)nc23)ccc1=O` [Example 9, 5-(5-amino-2-(2,6-difluorobenzyl)-7-(4-fluorophenyl)-[1,2,4]triazolo[1,5-c]pyrimidin-8-yl)-l-methylpyridin-2(1H)-one] has an IC50 (hA2a [1]) of 2.1 nM, an IC50 (hA1 [2]) of 0.2 nM and an IC50 (hA2a [5]) of 0.6 nM. It also gave an IC50 (hA2b [6]) of 56 nM, an IC50 (mA2a) of 0.8 nM and an IC50 (hA1 [7]) of 20 nM. For the same molecule, the IC50 (hA3 [8]) was > 10000 nM.
`Cn1cc(-c2c(-c3ccc(F)cc3)nc(N)n3nc(Cc4ncccc4OC(F)F)nc23)ccc1=O` [Example 20, 5-(5-amino-2-[[3-(difluoromethoxy)pyridin-2-yl]methyl]-7-(4-fluorophenyl)-[1,2,4]triazolo[1,5-c]pyrimidin-8-yl)-1-methyl-1,2-dihydropyridin-2-one] showed an IC50 (hA2a [1]) of 2.8 nM, an IC50 (hA1 [2]) of 4 nM and an IC50 (hA2b [3]) of 8.7 nM. It also gave an IC50 (hA3 [4]) of 1070 nM, an IC50 (hA2a [5]) of 3.5 nM and an IC50 (hA2b [6]) of 84 nM. The IC50 (mA2a) was 4.9 nM, the IC50 (hA1 [7]) was 34 nM and the IC50 (hA3 [8]) was > 10000 nM.
